Measurements taken from ChEMBL document CHEMBL1149255, “An in silico approach to discovering novel inhibitors of human sirtuin type 2” (J Med Chem, 2004).

Target: T1, NAD-dependent protein deacetylase sirtuin-2 (Homo sapiens, UniProt Q8IXJ6)
T1 sequence (Q8IXJ6 whole entry): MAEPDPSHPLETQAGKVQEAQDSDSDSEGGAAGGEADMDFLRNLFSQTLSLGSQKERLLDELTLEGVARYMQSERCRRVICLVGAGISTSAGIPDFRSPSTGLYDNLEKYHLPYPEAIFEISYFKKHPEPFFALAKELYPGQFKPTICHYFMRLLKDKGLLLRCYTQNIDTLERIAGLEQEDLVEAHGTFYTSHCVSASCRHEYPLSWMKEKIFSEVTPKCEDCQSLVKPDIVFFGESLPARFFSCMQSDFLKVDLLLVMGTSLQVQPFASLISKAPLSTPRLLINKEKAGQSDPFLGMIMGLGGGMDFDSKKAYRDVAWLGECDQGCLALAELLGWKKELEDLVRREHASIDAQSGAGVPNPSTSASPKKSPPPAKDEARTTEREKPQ
Assay: Inhibition of human recombinant GST-tagged SIRT2 by histone deacetylase assay

Structure (SMILES) | IC50
Cc1ncc(CSc2ccccc2/N=C/c2cc(Cl)cc(Cl)c2O)c(CO)c1O | 74.3 µM
Oc1ccccc1/C=N/c1ccc(OCCCCOc2ccc(/N=C/c3ccccc3O)cc2)cc1 | > 1000 µM
O=C(O)/C=C/C(=O)Nc1cccc(NC(=O)c2ccccc2O)c1 | > 1000 µM
Oc1ccccc1/C=N/c1ccc(OCCCOc2ccc(/N=C/c3ccccc3O)cc2)cc1 | > 1000 µM
O=C(O)CCCCOc1ccc2oc3ccccc3c(=O)c2c1 | > 1000 µM
O=C(Nc1ccc(COc2ccccc2)cc1)Nc1cccc(C(=O)O)c1 | > 300 µM
CC(C)(C)OC(=O)NC(Cc1ccccc1)C(=O)OCc1ccc(CC(=O)O)cc1 (stereo not given) | > 1000 µM
COc1cc(NC(=O)c2ccccc2)c(C)cc1NC(=O)CC(CC(=O)O)c1ccccc1 (stereo not given) | > 1000 µM
CN(CCO)c1ccc(C(=O)c2ccc(N(C)CCO)cc2)cc1 | > 1000 µM
Oc1ccc(/C=N/c2ccc(Cc3ccc(/N=C/c4ccc(O)c(O)c4)cc3)cc2)cc1O | > 1000 µM
O=C(O)CSCC(=O)N1CCN(c2cc(C(F)(F)F)nc3ccccc23)CC1 | > 1000 µM
O=c1cc(CSc2n[nH]c(=O)n2C2Cc3ccccc3C2)c2ccc(O)cc2o1 | > 300 µM
O=C1c2ccccc2C(=O)c2c(NCCc3ccc(O)cc3)ccc(NCCc3ccc(O)cc3)c21 | 56.7 µM
Oc1ccc(CCc2nnc(S)n2-c2ccc(Cl)cc2)cc1 | > 300 µM
O=C1c2cccc3c(SCCO)ccc(c23)C(=O)N1CCc1ccccn1 | > 1000 µM
